Reference: patent US6365614B1, “Fungicides mixtures” (priority 1997, dated 2002)

Test system: Plasmopara viticola
Assay: Curative action against Plasmopara viticola on potted grapevines
Assay type: in vivo, Plasmopara viticola on grapevines cv. Müller-Thurgau
Details: grapevine leaves, untreated control 73% infection
Protocol: Curative action against Plasmopara viticola
Leaves of potted grapevines cv. “Müller-Thurgau” were inoculated with an aqueous zoospore suspension of Plasmopara viticola. The grapevines were subsequently kept in a water-vapor-saturated chamber at 22-24° C. for 48 hours. They were then removed from the chambers and, after they had dried, sprayed to run off point with an aqueous preparation of active compound which had been prepared from a stock solution comprising 10% of active compound, 63% of cyclohexanone and 27% of emulsifier. After the spray coating had dried on, the plants were cultivated for another 5 days in the greenhouse at 20-30° C. After this time, the plants were returned into a humid chamber for 16 hours to accelerate the eruption of sporangiophore. The extent to which the disease had developed on the undersides of the leaves was then determined visually in %.
Evaluation is carried out by determining the infected leaf areas in percent. These percentages are converted into efficacies. The expected efficacies of the active compound mixtures are determined using Colby's formula [R. S. Colby, Weeds 15, 20-22 (1967)] and compared with the observed efficacies. Colby's formula: […]
expected efficacy, expressed in % of the untreated control, when using the mixture of the active compounds A, B and C at the concentrations a, b and c x efficacy, expressed in % of the untreated control, when using active compound A at a concentration of a y efficacy, expressed in % of the untreated control, when using active compound B at a concentration of b z efficacy, expressed in % of the untreated control, when using active compound C at a concentration of c The efficacy(E) is calculated as follows using Abbot's formula: […]
α corresponds to the fungal infection of the treated plants in % and β corresponds to the fungal infection of the untreated (control) plants in % An efficacy of 0 means that the infection level of the treated plants corresponds to that of the untreated control plants; an efficacy of 100 means that the treated plants were not infected.

[1] = 1 ppm active compound in the spray liquor

Structure (SMILES): Cc1cccc(C)c1N(C(=O)CCl)C1CCOC1=O (stereo not shown) [II.2, Ofurace]
- Efficacy in % of the untreated control [1]: 0%
- Efficacy in % of the untreated control (4 ppm active compound in the spray liquor): 73%
- Efficacy in % of the untreated control (16 ppm active compound in the spray liquor): 73%

Structure (SMILES): COCC(=O)N(c1c(C)cccc1C)C(C)C(=O)OC (stereo not shown) [II.3, metalaxyl]
- Efficacy in % of the untreated control [1]: 59%
